The text below walks through data of patent US8916523B2, “VIP fragments and methods of use” (Vectus Biosystems Limited, priority 2005, dated 2014).

Ends that are not written are not given here.

Test [1] deals with Spontaneous Hypertensive Rats (SHR). The test can be described thus: Effect of VIP fragment treatment on blood pressure (tail cuff plethysmography) in animal model of hypertension. It counts as in vivo, rat. The settings on record: for reduction in systolic blood pressure (SBP) relative to the control solution: SHR on 2.2% salt diet for 4 weeks, peptide infused at 5 pmol/kg/min for 4 weeks, FIGS. 6-9. The source says: To determine whether VIP and fragments were effective in controlling blood pressure, Spontaneous Hypertensive Rats (SHR) were acclimated to blood pressure measurement by tail cuff plethysmography and then they were placed on a 2.2% salt diet for 4 weeks.
The rats were randomized to Control (Hartman's Solution) vehicle infusion, VIP(1-28) ([…] (SEQ ID NO: 1), VIP(4-10) (Ala-Val-Phe-Thr-Asp-Asn-Tyr) (SEQ ID NO: 29), VIP(4-12) (Ala-Val-Phe-Thr-Asp-Asn-Tyr-Thr-Arg) (SEQ ID NO: 31), VIP(4-16) (Ala-Val-Phe-Thr-Asp-Asn-Tyr-Thr-Arg-Leu-Arg-Lys-Gln) (SEQ ID NO: 35), VIP(4-20) (Ala-Val-Phe-Thr-Asp-Asn-Tyr-Thr-Arg-Leu-Arg-Lys-Gln-Met-Ala-Val-Lys) (SEQ ID NO: 39), VIP(4-24) ([…] (SEQ ID NO: 43), VIP(4-28) ([…] (SEQ ID NO: 90), VIP(6-10) (Phe-Thr-Asp-Asn-Tyr) (SEQ ID NO: 66), VIP(6-12) (Phe-Thr-Asp-Asn-Tyr-Thr-Arg) (SEQ ID NO: 68), VIP(6-16) (Phe-Thr-Asp-Asn-Tyr-Thr-Arg-Leu-Arg-Lys-Gln) (SEQ ID NO: 72), VIP(6-20) (Phe-Thr-Asp-Asn-Tyr-Thr-Arg-Leu-Arg-Lys-Gln-Met-Ala-Val-Lys) (SEQ ID NO: 76), VIP(6-24) (Phe-Thr-Asp-Asn-Tyr-Thr-Arg-Leu-Arg-Lys-Gln-Met-Ala-Val-Lys-Lys-Tyr-Leu-Asn) (SEQ ID NO: 80), VIP(6-28) ([…] (SEQ ID NO: 84), VIP(16-20) (Gln-Met-Ala-Val-Lys) (SEQ ID NO: 20), VIP(16-24) (Gln-Met-Ala-Val-Lys-Lys-Tyr-Leu-Asn) (SEQ ID NO: 93), VIP(16-28) (Gln-Met-Ala-Val-Lys-Lys-Tyr-Leu-Asn-Ser-Ile-Leu-Asn) (SEQ ID NO: 88), VIP(1-12) (His-Ser-Asp-Ala-Val-Phe-Thr-Asp-Asn-Tyr-Thr-Arg) (SEQ ID NO: 91) and VIP(10-28) (Tyr-Thr-Arg-Leu-Arg-Lys-Gln-Met-Ala-Val-Lys-Lys-Tyr-Leu-Asn-Ser-Ile-Leu-Asn) (SEQ ID NO: 92), VIP(4-10) (Ala-Val-Phe-Thr-Asp-Asn-Tyr) (SEQ ID NO: 29).
Each peptide was infused at 5 pmol/kg/min
Blood pressure was measured by tail cuff plethysmography twice weekly for 4 weeks.

The subject of test [2] is WKY rats on a high salt diet. The test can be described thus: Effect of VIP fragment treatment on regression of existing myocardial fibrosis. The settings on record: 18 week old WKY rats after 4 weeks high salt diet and infusion 5 pmol/kg/min vs untreated 14 week old rats (zero time), preliminary results, FIG. 2. It counts as in vivo, rat. As to the method: To determine whether VIP (6-16) (SEQ ID NO: 72), VIP(6-20) (SEQ ID NO: 76) and VIP(6-24) (SEQ ID NO: 80) infusion caused regression of existing fibrosis as well as prevented progression of fibrosis two groups of studies were performed. The degree of myocardial fibrosis in untreated 14 week old WKY rats was compared with the degree of fibrosis in 18 week old WKY rats after 4 weeks treatment with a high salt diet or a high salt diet plus L-NAME (10 mg/kg/day) and either VIP (6-16) (SEQ ID NO: 72), VIP(6-20) (SEQ ID NO: 76) and VIP(6-24) (SEQ ID NO: 80) (5 pmol/kg/min) or vehicle control infusion (see FIG. 2)
The regression of fibrosis may be due to either reduction in collagen formation or enhancement of its degradation.

Another test deals with myocardial fibrosis. Particulars: disclosed in PCT/AU2005/000835; cited from earlier work.

AVFTDNYTR [VIP(4-12)]: the “reduction in systolic blood pressure (SBP) relative to the control solution” value in test [1] is given as “significant reductions in SBP”. AVFTDNYTRLRKQ [VIP(4-16)]: the “reduction in systolic blood pressure (SBP) relative to the control solution” value in test [1] is recorded as “significant reductions in SBP”. The “relative efficacy in reducing SBP compared with VIP(4-12) and VIP(4-20)” value in test [1] (SHR on high salt diet, 5 pmol/kg/min for 4 weeks, FIG. 6) is recorded as “less efficacious”. With AVFTDNYTRLRKQMAVK [VIP(4-20)], the “reduction in systolic blood pressure (SBP) relative to the control solution” value in test [1] was “significant reductions in SBP”. AVFTDNYTRLRKQMAVKKYLN [VIP(4-24)]: the “reduction in systolic blood pressure (SBP) relative to the control solution” value in test [1] is recorded as “significant reductions in SBP”. For AVFTDNYTRLRKQMAVKKYLNSILN [VIP(4-28)], in test [1], the “reduction in systolic blood pressure (SBP) relative to the control solution” value is “significant reductions in SBP”. With FTDNYTRLRKQ [VIP(6-16)], the “regression of myocardial fibrosis” value in test [2] was “regression of myocardial fibrosis”.

Consider FTDNYTRLRKQMAVK [VIP(6-20)], for which the “reduction in systolic blood pressure (SBP) relative to the control solution” value in test [1] was “significant reductions in SBP”.

As for FTDNYTRLRKQMAVKKYLN [VIP(6-24)], the “reduction in systolic blood pressure (SBP) relative to the control solution” value in test [1] is recorded as “significant reductions in SBP”. On to “His-Ser-Asp-Ala-Val-Phe-Thr-Asp-Asn-Tyr-Thr-Arg-Leu-Arg-Lys-Gln-Met-Ala-Val-Lys-Lys-Tyr-Leu-Asn-Ser-Ile-Leu-Asn (HSDAVFTDNYTRLRKQMAVKKYLNSILN; listed as Homo sapiens) [VIP, reference compound]”, for which, in test [1], the “reduction in systolic blood pressure (SBP) relative to the control solution” value is “not seen to have any significant effect in reducing SBP”. On to “Phe-Thr-Asp-Asn-Tyr-Thr-Arg-Leu-Arg-Lys-Gln-Met-Ala-Val-Lys-Lys-Tyr-Leu-Asn-Ser-Ile-Leu-Asn (FTDNYTRLRKQMAVKKYLNSILN; listed as Homo sapiens) [VIP(6-28), VIP fragment described earlier in PCT/AU2005/000835, not included in the present invention, reference compound]”, for which, in test [1], the “reduction in systolic blood pressure (SBP) relative to the control solution” value is listed as “significant reductions in SBP”. For the same substance, the “effectiveness for preventing myocardial fibrosis” value with myocardial fibrosis is “effective for preventing myocardial fibrosis”.
